Measured values published in ChEMBL document CHEMBL2440115, “Discovery and characterization of synthetic 4'-hydroxyflavones-New CK2 inhibitors from flavone family” (Bioorg Med Chem, 2013).

Legend:
Casein kinase II = Casein kinase II (Homo sapiens, UniProt P19784+P67870+P68400); experiment: Inhibition of recombinant human CK2 using RRRDDDSDDD as substrate after 20 mins by beta counting analysis in presence of [gamma-labeled 32P]ATP; assay type: protein-complex assay
[1] = molecular target: Casein kinase II (Homo sapiens) (UniProt P67870+P68400+P19784); experiment: Inhibition of recombinant human CK2 using RRRDDDSDDD as substrate assessed as residual activity at 10 uM after 20 mins by beta counting analysis in presence of [gamma-labeled 32P]ATP relative to control; assay type: protein-complex assay

Sequence of Casein kinase II (P67870 whole entry): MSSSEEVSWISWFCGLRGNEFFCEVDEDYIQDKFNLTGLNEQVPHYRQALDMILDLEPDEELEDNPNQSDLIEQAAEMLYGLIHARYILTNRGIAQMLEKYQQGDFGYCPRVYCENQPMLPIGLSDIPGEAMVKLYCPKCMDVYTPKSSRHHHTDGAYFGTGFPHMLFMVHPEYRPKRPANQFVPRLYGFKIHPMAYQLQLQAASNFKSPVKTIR
Sequence of Casein kinase II (P68400 whole entry): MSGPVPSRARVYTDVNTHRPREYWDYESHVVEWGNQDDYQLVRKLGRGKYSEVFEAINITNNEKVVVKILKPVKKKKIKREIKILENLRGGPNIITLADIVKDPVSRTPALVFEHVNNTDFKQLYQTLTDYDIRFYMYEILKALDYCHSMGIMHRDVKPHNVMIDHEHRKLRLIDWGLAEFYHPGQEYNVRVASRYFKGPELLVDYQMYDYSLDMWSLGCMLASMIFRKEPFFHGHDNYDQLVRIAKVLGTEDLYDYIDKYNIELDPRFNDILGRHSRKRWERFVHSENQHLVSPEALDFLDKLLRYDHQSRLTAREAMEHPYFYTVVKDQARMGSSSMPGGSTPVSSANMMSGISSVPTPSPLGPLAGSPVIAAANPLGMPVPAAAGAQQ
Sequence of Casein kinase II (P19784 whole entry): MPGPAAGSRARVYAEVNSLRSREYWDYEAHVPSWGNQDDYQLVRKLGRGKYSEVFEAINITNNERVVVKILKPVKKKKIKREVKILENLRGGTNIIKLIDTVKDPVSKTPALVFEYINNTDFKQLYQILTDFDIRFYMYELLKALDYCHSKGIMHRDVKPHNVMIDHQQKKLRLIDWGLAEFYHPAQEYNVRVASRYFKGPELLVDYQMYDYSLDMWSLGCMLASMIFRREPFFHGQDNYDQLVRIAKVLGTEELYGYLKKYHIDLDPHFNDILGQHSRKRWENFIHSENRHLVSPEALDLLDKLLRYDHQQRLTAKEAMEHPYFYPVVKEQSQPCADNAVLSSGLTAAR

SMILES	IC50 (Casein kinase II)	Activity [1]
COc1cc(-c2cc(=O)c3cc(C)ccc3o2)cc(OC)c1OC	> 30 µM	92%
COc1cc(-c2cc(=O)c3cc(C)ccc3o2)ccc1O	0.32 µM	
Cc1ccc2oc(-c3ccc(C(C)C)cc3)c(O)c(=O)c2c1	26 µM	39%
COc1ccc(-c2cc(=O)c3cc(C)cc(C)c3o2)cc1OC	> 30 µM	87%
COc1ccc2c(=O)cc(-c3ccc(O)c(OC)c3)oc2c1	0.175 µM	
COc1cc(-c2cc(=O)c3cc(NC(C)=O)ccc3o2)ccc1O	0.15 µM	
COc1ccc2oc(-c3ccc(O)c(OC)c3)cc(=O)c2c1	0.2 µM	
COc1ccc(-c2cc(=O)c3c(CN4CCOCC4)c(O)ccc3o2)cc1	> 30 µM	79%
Cc1ccc(-c2cc(=O)c3cc(O)ccc3o2)cc1	19 µM	35%
COc1ccc(-c2oc3ccc(C)cc3c(=O)c2O)cc1	28 µM	50%
Cc1ccc2oc(-c3ccccc3)c(OCC(=O)N3CCOCC3)c(=O)c2c1	> 30 µM	95%
COc1cc(-c2cc(=O)c3cc(Cl)c(C)cc3o2)ccc1O	0.79 µM	
COc1ccc(-c2cc(=O)c3cc(C)cc(C)c3o2)cc1O	> 30 µM	
CCOc1ccc(-c2oc3ccc(C)cc3c(=O)c2O)cc1	> 30 µM	57%
Cc1ccc(-c2oc3ccc(C)cc3c(=O)c2O)cc1	> 30 µM	56%
COc1cc(-c2oc3ccc(C)cc3c(=O)c2O)cc(OC)c1OC	> 30 µM	65%
COc1ccc(-c2oc3ccccc3c(=O)c2O)cc1OC [3-HYDROXY-3',4'-DIMETHOXYFLAVONE]	> 30 µM	66%
COc1ccc(-c2cc(=O)c3c4c(ccc3o2)OCN(c2cccc(C(F)(F)F)c2)C4)cc1	15 µM	18%
Cc1cc(C)c2oc(-c3cc(Cl)c(O)c(Cl)c3)cc(=O)c2c1	0.078 µM	
CN(C)c1ccc(-c2oc3ccccc3c(=O)c2O)cc1	> 30 µM	73%
Cc1ccc(-c2oc3ccccc3c(=O)c2OCC(=O)N2CCOCC2)cc1	> 30 µM	97%
COc1cc(-c2cc(=O)c3c(CN(C)Cc4ccccc4)c(O)ccc3o2)cc(OC)c1OC	> 30 µM	73%
Cc1ccc2oc(-c3cc(Br)ccc3O)c(O)c(=O)c2c1	28 µM	45%
COc1cc(-c2cc(=O)c3cc(C)cc(C)c3o2)cc(Br)c1O	0.65 µM	
COc1cc(-c2cc(=O)c3cc(Cl)cc(Cl)c3o2)cc(Cl)c1O	0.02 µM	
Cc1cc(C)c2oc(-c3ccc(O)cc3)cc(=O)c2c1	1.6 µM	

SMILES	IC50 (Casein kinase II)	Activity [1]
COc1ccc(-c2cc(=O)c3cc(O)ccc3o2)cc1	30 µM	49%
CCOc1cc(-c2cc(=O)c3ccccc3o2)ccc1O	7.5 µM	21%
COc1cc(-c2cc(=O)c3cc(Br)ccc3o2)ccc1O	0.12 µM	
COc1cc(-c2cc(=O)c3cc(O)ccc3o2)cc(OC)c1OC	26 µM	45%
O=C(COc1c(-c2ccccc2Cl)oc2ccccc2c1=O)N1CCOCC1	> 30 µM	97%
Cc1cc(C)c2oc(-c3ccc(O)c([N+](=O)[O-])c3)cc(=O)c2c1	0.012 µM	
COc1cc(-c2cc(=O)c3c(C)cc(C)cc3o2)ccc1O	0.03 µM	
Cc1ccc2oc(-c3ccc(O)cc3)cc(=O)c2c1	8 µM	
COc1ccc(-c2oc3ccccc3c(=O)c2OC)cc1OC	> 30 µM	66%
COc1cc(-c2cc(=O)c3ccc4ccccc4c3o2)ccc1O	0.028 µM	
COc1cc(-c2cc(=O)c3cc(C)c(C)cc3o2)ccc1O	3 µM	
COc1ccc(-c2cc(=O)c3c(CN(C)Cc4ccccc4)c(O)ccc3o2)cc1	> 30 µM	73%
COc1cc(-c2cc(=O)c3c(CN4CCCCC4)c(O)ccc3o2)cc(OC)c1OC	> 30 µM	74%
COc1cc(-c2cc(=O)c3cc(C)cc(C)c3o2)cc([N+](=O)[O-])c1O	0.066 µM	
Cc1ccc2oc(-c3ccc(Cl)cc3)c(O)c(=O)c2c1	23 µM	38%
COc1cc(-c2cc(=O)c3ccccc3o2)ccc1O	0.8 µM	5%
COc1cc(-c2cc(=O)c3cc(Cl)ccc3o2)ccc1O	0.24 µM	
COc1cc(-c2cc(=O)c3ccc4ccccc4c3o2)cc(Cl)c1O	0.087 µM	
Cc1cc(C)c2oc(-c3cccc(O)c3)cc(=O)c2c1	2.2 µM	
COc1ccc(-c2oc3ccc(C)cc3c(=O)c2O)cc1OC	> 30 µM	64%
COc1cc(-c2cc(=O)c3ccc(C)cc3o2)ccc1O	0.09 µM	
Cc1cc(C)c2oc(-c3cc(Br)c(O)c(Br)c3)cc(=O)c2c1	0.18 µM	
COc1cccc(-c2oc3ccc(C)cc3c(=O)c2O)c1	25 µM	47%
COc1ccc(-c2oc3cc(C)cc(C)c3c(=O)c2OC(=O)C2COc3ccccc3O2)cc1 (stereo not given)	21 µM	37%
Cc1ccc(-c2oc3c(C)cc(C)cc3c(=O)c2OCC(=O)O)cc1	28 µM	50%
COc1ccc(-c2oc3ccc(C)cc3c(=O)c2OCC(=O)O)cc1	> 30 µM	77%

SMILES	IC50 (Casein kinase II)	Activity [1]
O=c1cc(-c2cccc(Br)c2)oc2ccc(O)cc12	19 µM	29%
COc1ccc(-c2oc3c(C)cc(C)cc3c(=O)c2OS(C)(=O)=O)cc1	28 µM	46%
COc1cc(-c2cc(=O)c3cc(C)cc(C)c3o2)cc(Cl)c1O	0.09 µM	
COc1ccc(-c2cc(=O)c3cc(C)ccc3o2)cc1OC	> 30 µM	81%
Cc1cc(C)c2c(=O)cc(-c3ccc(N(C)C)cc3)oc2c1	> 30 µM	58%
CCOc1cc(-c2cc(=O)c3cc(C)ccc3o2)ccc1O	8 µM	18%
COc1ccc(-c2oc3ccccc3c(=O)c2OC(C)=O)cc1	> 30 µM	68%
COc1ccc(-c2oc3ccccc3c(=O)c2O)cc1	> 30 µM	86%
CCc1ccc2oc(-c3ccc(O)c(OC)c3)cc(=O)c2c1	0.12 µM	
Cc1ccc2oc(-c3ccc(Br)cc3)c(O)c(=O)c2c1	> 30 µM	65%
Cc1ccc(-c2cc(=O)c3cc(C)cc(C)c3o2)cc1	21 µM	35%
COc1ccc(-c2cc(=O)c3c4c(ccc3o2)OCN(Cc2ccco2)C4)cc1	12 µM	17%
Cc1ccc2oc(-c3ccccc3)c(O)c(=O)c2c1	> 30 µM	80%
O=c1cc(-c2ccc(F)cc2)oc2ccccc12	> 30 µM	77%
COc1ccc(-c2cc(=O)c3c(CN4CCC(C)CC4)c(O)ccc3o2)cc1	> 30 µM	68%
COc1cccc(-c2cc(=O)c3cc(C)cc(C)c3o2)c1O	> 30 µM	
COc1cc(-c2cc(=O)c3c(C)c(Cl)c(C)cc3o2)ccc1O	2 µM	
Cc1ccc2oc(-c3ccc(F)cc3)c(O)c(=O)c2c1	> 30 µM	60%
COc1ccc(-c2cc(=O)c3cc(OC(C)=O)ccc3o2)cc1	> 30 µM	89%
COc1cc(-c2cc(=O)c3ccc(C)c(C)c3o2)ccc1O	0.3 µM	
COc1ccc(-c2cc(=O)c3cc(C)ccc3o2)cc1	> 30 µM	73%
Cc1cc(C)c2oc(-c3ccc(O)c(O)c3)cc(=O)c2c1	0.45 µM	
CCN1CCN(Cc2c(O)ccc3oc(-c4cc(OC)c(OC)c(OC)c4)cc(=O)c23)CC1	> 30 µM	77%
Cc1cc(C)c2oc(-c3ccc(O)c(Br)c3)cc(=O)c2c1	0.05 µM	
Cc1ccc(-c2oc3ccc(C)cc3c(=O)c2OCC(=O)O)cc1	> 30 µM	83%
